Non-standard residues stand in square brackets, D forms with d. Residues, ends and D or L forms follow the SMILES beside them.
System: pituitaries removed from 20 day old female rats
Experiment: In vitro growth hormone release study (incubated rat pituitaries, GH radioimmunoassay)
Type: cell-based
Details: mean ± SEM, two pituitaries in 1 ml lactated Ringer's, 36° C.
Experimental: Female rats of the CD-1 strain were housed in a constant temperature room at 24° C. with 14 hours light and 10 hours darkness. The rats were fed Purina brand rat chow ab libitum.
All studies were started between 0800 and 1000 hours.
Pituitaries were removed from 20 day old female rats. Two pituitaries were incubated at 36° C. in 1 ml of lactated Ringer's solution in 10 ml polytetrafluoroethylene beakers in a Dubnoff Shaker (90 cycles/min.). The pituitaries were incubated a total of 4 hours (P1, P2, I3, and I4). After two successive one hour preincubation periods (P1, P2), the peptide was added to the incubation medium hourly for 2 hours (I3, I4).
This in vitro study was performed in triplicate and a standard radioimmunoassay of growth hormone present in the incubation medium was performed in duplicate. The hormonal activity was calculated as the difference (Δ) of growth hormone (GH) levels between I3, I4 and P2, i.e., (I3 -P2) and (I4 -P2). P values were calculated by Students' t test using six growth hormone values for each value recorded.
The growth hormone radioimmunoassay reagents were distributed by the National Institute of Arthritis and […] (NIAMDD) program. The growth hormone values were calculated in terms of nanograms (ng) of a rat standard with a growth hormone potency of 0.61 units/mg.

Row | Molecule | In vitro growth hormone release (Δ GH levels, I3-P2 and I4-P2) (0.3μg peptide) | In vitro growth hormone release (Δ GH levels, I3-P2 and I4-P2) (1μg peptide) | In vitro growth hormone release (Δ GH levels, I3-P2 and I4-P2) (10μg peptide) | In vitro growth hormone release (Δ GH levels, I3-P2 and I4-P2) (0.1μg peptide) | In vitro growth hormone release (Δ GH levels, I3-P2 and I4-P2) (100μg peptide)
1 | NC(=O)[C@H](Cc1ccc(O)cc1)NC(=O)[C@@H](Cc1c[nH]c2ccccc12)NC(=O)[C@@H](Cc1c[nH]c2ccccc12)NC(=O)[C@@H](N)Cc1ccc(O)cc1 [H2 N--Tyr--D-Trp--D-trp--Tyr--CONH2, H2 N-Tyr-D-Trp-D-Trp-Tyr-CONH2] (H-Y[dW][dW]Y-NH2) | 345 ± 103 ng GH/ml incubation medium | 1111 ± 572 ng GH/ml incubation medium | 1898 ± 267 ng GH/ml incubation medium | – | –
2 | H2 N-Tyr-D-Trp-D-Trp-Phe-CONH2 [H2 N--Tyr--D-Trp--D-Trp--Phe--CONH2] | – | 686 ± 82 ng GH/ml incubation medium | 1790 ± 160 ng GH/ml incubation medium | 453 ± 48 ng GH/ml incubation medium | 984 ± 355 ng GH/ml incubation medium

Source: patent US4223020A, “Synthetic peptides having pituitary growth hormone releasing activity” (Beckman Instruments, Inc., priority 1979, dated 1980)
